Test results reported in patent US20260022142A1, “MACROCYCLIC IMMUNOMODULATORS” (Bristol-Myers Squibb Company, priority 2022, published 2026).
Bridge positions count the residues as written; N and C are the ends. Square brackets hold non-standard residues; d marks the D form. Peptide text beside a SMILES is read from it. * marks the point of attachment. Phe(4-CONH2) = NC(=O)c1ccc(C[C@H](N)C(=O)O)cc1; Phe(4-COOH) = N[C@@H](Cc1ccc(C(=O)O)cc1)C(=O)O; Bip = N[C@@H](Cc1ccc(-c2ccccc2)cc1)C(=O)O; NH(CH2)14COOH = O=C(O)CCCCCCCCCCCCCCN*; Phe(3-Me) = Cc1cccc(C[C@H](N)C(=O)O)c1; NH(CH2)12COOH = O=C(O)CCCCCCCCCCCCN*; Val(3-OH) = CC(C)(O)[C@H](N)C(=O)O; 4Pal = N[C@@H](Cc1ccncc1)C(=O)O; Cha = N[C@@H](CC1CCCCC1)C(=O)O; Carboxymethyl = O=C(O)C*; Orn = NCCC[C@H](N)C(=O)O; Aun = NCCCCCCCCCCC(=O)O; Dab = NCC[C@H](N)C(=O)O; AEEA = NCCOCCOCC(=O)O

Biological target: T1, PD-1/PD-L1 interaction (PE-labeled human PD-L1-Ig binding to Jurkat cell line over-expressing human PD-1) (Homo sapiens, UniProt Q15116)
T1 construct: expressed in transfected cells; host or cells: Jurkat
Assay: Jurkat-PD-1 Cell Binding High-Content Screening Assay (CBA)
Assay type: cell-based
Conditions: Jurkat cell line over-expressing human PD-1; PE-labeled PD-L1-Ig 20 nM final; read-out: Jurkat hPD1-PDL1 IC50
Method in brief: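 Jurkat-hPD-1 cells, DMEM/10% FCS; cpd 2 h 37° C; PE-PD-L1-Ig 20 nM final, 1 h; 4% PFA fix + Hoechst 33342, 3× dPBS wash; high-content imaging read-out.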

T1 sequence (Q15116 25-288): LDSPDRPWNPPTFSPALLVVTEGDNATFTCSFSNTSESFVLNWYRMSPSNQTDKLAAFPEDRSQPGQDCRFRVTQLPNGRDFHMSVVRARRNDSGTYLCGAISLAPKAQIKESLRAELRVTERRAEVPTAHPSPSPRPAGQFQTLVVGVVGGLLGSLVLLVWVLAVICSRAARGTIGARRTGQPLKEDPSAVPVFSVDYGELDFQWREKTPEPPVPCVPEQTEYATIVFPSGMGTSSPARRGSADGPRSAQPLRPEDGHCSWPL

| SMILES | IC50 [nM] |
| --- | --- |
| Cc1cccc(C[C@@H]2NC(=O)[C@H](CC(=O)O)NC(=O)[C@H](Cc3ccc(C(=O)O)cc3)NC(=O)[C@H](Cc3ccncc3)NC(=O)CSC[C@@H](C(=O)N[C@@H](CCN)C(=O)NCCOCCOCC(=O)NCCCCCCCCCCC(=O)O)NC(=O)[C@H](CO)NC(=O)[C@H](C(C)(C)O)NC(=O)[C@H](CC3CCCCC3)NC(=O)[C@H](Cc3cnc[nH]3)NC(=O)[C@@H](CC(C)C)NC(=O)[C@H](CCC(N)=O)NC(=O)[C@H](Cc3ccc(OCC(=O)O)cc3)NC(=O)[C@H](Cc3ccc(-c4ccccc4)cc3)NC(=O)[C@H](Cc3ccc(OCC(=O)O)cc3)NC2=O)c1 [Compound 3749] ({CH2CO}-[4Pal][Phe(4-COOH)]D[Phe(3-Me)]Y(Carboxymethyl)[Bip]Y(Carboxymethyl)Q[dL]H[Cha][Val(3-OH)]SC[Dab][AEEA][Aun]-OH; thioether N-14) | 56.6 |
| Cc1cccc(C[C@@H]2NC(=O)[C@H](CC(=O)O)NC(=O)[C@H](Cc3ccc(C(N)=O)cc3)NC(=O)[C@H](Cc3ccncc3)NC(=O)CSC[C@@H](C(=O)N[C@@H](CCN)C(=O)NCCOCCOCC(=O)NCCCCCCCCCCC(=O)O)NC(=O)[C@H](CO)NC(=O)[C@H](C(C)(C)O)NC(=O)[C@H](CC3CCCCC3)NC(=O)[C@H](CCN)NC(=O)[C@@H](CC(C)C)NC(=O)[C@H](CCCN)NC(=O)[C@H](Cc3ccc(OCC(=O)O)cc3)NC(=O)[C@H](Cc3ccc(-c4ccccc4)cc3)NC(=O)[C@H](Cc3ccc(OCC(=O)O)cc3)NC2=O)c1 [Compound 3750] ({CH2CO}-[4Pal][Phe(4-CONH2)]D[Phe(3-Me)]Y(Carboxymethyl)[Bip]Y(Carboxymethyl)[Orn][dL][Dab][Cha][Val(3-OH)]SC[Dab][AEEA][Aun]-OH; thioether N-14) | 125 |
| Cc1cccc(C[C@@H]2NC(=O)[C@H](CC(=O)O)NC(=O)[C@H](Cc3ccc(OCC(=O)O)cc3)NC(=O)[C@H](CCN)NC(=O)CSC[C@@H](C(=O)N[C@@H](CCN)C(=O)NCCOCCOCC(=O)NCCOCCOCC(=O)NCCCCCCCCCCC(=O)O)NC(=O)[C@H](CCC(=O)O)NC(=O)[C@H](C(C)(C)O)NC(=O)[C@H](CC3CCCCC3)NC(=O)[C@H](CCN)NC(=O)[C@@H](CC(C)C)NC(=O)[C@H](CCCN)NC(=O)[C@H](Cc3ccc(OCC(=O)O)cc3)NC(=O)[C@H](Cc3ccc(-c4ccccc4)cc3)NC(=O)[C@H](Cc3ccc(OCC(=O)O)cc3)NC2=O)c1 [Compound 3753] ({CH2CO}-[Dab]Y(Carboxymethyl)D[Phe(3-Me)]Y(Carboxymethyl)[Bip]Y(Carboxymethyl)[Orn][dL][Dab][Cha][Val(3-OH)]EC[Dab][AEEA][AEEA][Aun]-OH; thioether N-14) | 6 |
| Cc1cccc(C[C@@H]2NC(=O)[C@H](CC(=O)O)NC(=O)[C@H](Cc3ccc(OCC(=O)O)cc3)NC(=O)[C@H](Cc3ccncc3)NC(=O)CSC[C@@H](C(=O)N[C@@H](CCN)C(=O)NCCOCCOCC(=O)NCCOCCOCC(=O)NCCCCCCCCCCCCC(=O)O)NC(=O)[C@H](CCC(=O)O)NC(=O)[C@H](C(C)C)NC(=O)[C@H](CC3CCCCC3)NC(=O)[C@H](CCN)NC(=O)[C@@H](CC(C)C)NC(=O)[C@H](CCCN)NC(=O)[C@H](Cc3ccc(C(=O)O)cc3)NC(=O)[C@H](Cc3ccc(-c4ccccc4)cc3)NC(=O)[C@H](Cc3ccc(C(=O)O)cc3)NC2=O)c1 [Compound 3754] ({CH2CO}-[4Pal]Y(Carboxymethyl)D[Phe(3-Me)][Phe(4-COOH)][Bip][Phe(4-COOH)][Orn][dL][Dab][Cha]VEC[Dab][AEEA][AEEA]-{NH(CH2)12COOH}; thioether N-14) | 250 |
| Cc1cccc(C[C@@H]2NC(=O)[C@H](CC(=O)O)NC(=O)[C@H](Cc3ccc(OCC(=O)O)cc3)NC(=O)[C@H](CCN)NC(=O)CSC[C@@H](C(=O)N[C@@H](CCN)C(=O)NCCOCCOCC(=O)NCCOCCOCC(=O)NCCCCCCCCCCCCC(=O)O)NC(=O)[C@H](CCC(=O)O)NC(=O)[C@H](C(C)(C)O)NC(=O)[C@H](CC3CCCCC3)NC(=O)[C@H](CCN)NC(=O)[C@@H](CC(C)C)NC(=O)[C@H](CCCN)NC(=O)[C@H](Cc3ccc(OCC(=O)O)cc3)NC(=O)[C@H](Cc3ccc(-c4ccccc4)cc3)NC(=O)[C@H](Cc3ccc(OCC(=O)O)cc3)NC2=O)c1 [Compound 3758] ({CH2CO}-[Dab]Y(Carboxymethyl)D[Phe(3-Me)]Y(Carboxymethyl)[Bip]Y(Carboxymethyl)[Orn][dL][Dab][Cha][Val(3-OH)]EC[Dab][AEEA][AEEA]-{NH(CH2)12COOH}; thioether N-14) | 19 |
| Cc1cccc(C[C@@H]2NC(=O)[C@H](CC(=O)O)NC(=O)[C@H](Cc3ccc(OCC(=O)O)cc3)NC(=O)[C@H](CCN)NC(=O)CSC[C@@H](C(=O)N[C@@H](CCN)C(=O)NCCOCCOCC(=O)NCCOCCOCC(=O)NCCCCCCCCCCCCC(=O)O)NC(=O)[C@H](CCC(=O)O)NC(=O)[C@H](C(C)(C)O)NC(=O)[C@H](CC3CCCCC3)NC(=O)[C@H](CCN)NC(=O)[C@@H](CC(C)C)NC(=O)[C@H](CCCN)NC(=O)[C@H](Cc3ccc(C(=O)O)cc3)NC(=O)[C@H](Cc3ccc(-c4ccccc4)cc3)NC(=O)[C@H](Cc3ccc(C(=O)O)cc3)NC2=O)c1 [Compound 3759] ({CH2CO}-[Dab]Y(Carboxymethyl)D[Phe(3-Me)][Phe(4-COOH)][Bip][Phe(4-COOH)][Orn][dL][Dab][Cha][Val(3-OH)]EC[Dab][AEEA][AEEA]-{NH(CH2)12COOH}; thioether N-14) | 39.2 |
| Cc1cccc(C[C@@H]2NC(=O)[C@H](CC(=O)O)NC(=O)[C@H](Cc3ccc(OCC(=O)O)cc3)NC(=O)[C@H](CCN)NC(=O)CSC[C@@H](C(=O)N[C@@H](CCN)C(=O)NCCOCCOCC(=O)NCCOCCOCC(=O)NCCCCCCCCCCCCCCC(=O)O)NC(=O)[C@H](Cc3cnc[nH]3)NC(=O)[C@H](C(C)(C)O)NC(=O)[C@H](CC3CCCCC3)NC(=O)[C@H](CCN)NC(=O)[C@@H](CC(C)C)NC(=O)[C@H](CCCN)NC(=O)[C@H](Cc3ccc(C(=O)O)cc3)NC(=O)[C@H](Cc3ccc(-c4ccccc4)cc3)NC(=O)[C@H](Cc3ccc(C(=O)O)cc3)NC2=O)c1 [Compound 3762] ({CH2CO}-[Dab]Y(Carboxymethyl)D[Phe(3-Me)][Phe(4-COOH)][Bip][Phe(4-COOH)][Orn][dL][Dab][Cha][Val(3-OH)]HC[Dab][AEEA][AEEA]-{NH(CH2)14COOH}; thioether N-14) | 27.5 |

Next, values leading:

| IC50 [nM] | SMILES |
| --- | --- |
| 314 | Cc1cccc(C[C@@H]2NC(=O)[C@H](CC(=O)O)NC(=O)[C@H](Cc3ccc(OCC(=O)O)cc3)NC(=O)[C@H](Cc3ccncc3)NC(=O)CSC[C@@H](C(=O)N[C@@H](CCN)C(=O)NCCOCCOCC(=O)NCCOCCOCC(=O)NCCCCCCCCCCC(=O)O)NC(=O)[C@H](CCCN)NC(=O)[C@H](C(C)(C)O)NC(=O)[C@H](CC3CCCCC3)NC(=O)[C@H](CCN)NC(=O)[C@@H](CC(C)C)NC(=O)[C@H](CCCN)NC(=O)[C@H](Cc3ccc(OCC(=O)O)cc3)NC(=O)[C@H](Cc3ccc(-c4ccccc4)cc3)NC(=O)[C@H](Cc3ccc(OCC(=O)O)cc3)NC2=O)c1 [Compound 3755] ({CH2CO}-[4Pal]Y(Carboxymethyl)D[Phe(3-Me)]Y(Carboxymethyl)[Bip]Y(Carboxymethyl)[Orn][dL][Dab][Cha][Val(3-OH)][Orn]C[Dab][AEEA][AEEA][Aun]-OH; thioether N-14) |
| 2.6 | Cc1cccc(C[C@@H]2NC(=O)[C@H](CC(=O)O)NC(=O)[C@H](Cc3ccc(OCC(=O)O)cc3)NC(=O)[C@H](CCN)NC(=O)CSC[C@@H](C(=O)N[C@@H](CCN)C(=O)NCCOCCOCC(=O)NCCOCCOCC(=O)NCCCCCCCCCCC(=O)O)NC(=O)[C@H](Cc3cnc[nH]3)NC(=O)[C@H](C(C)C)NC(=O)[C@H](CC3CCCCC3)NC(=O)[C@H](CCN)NC(=O)[C@@H](CC(C)C)NC(=O)[C@H](CCCN)NC(=O)[C@H](Cc3ccc(C(=O)O)cc3)NC(=O)[C@H](Cc3ccc(-c4ccccc4)cc3)NC(=O)[C@H](Cc3ccc(C(=O)O)cc3)NC2=O)c1 [Compound 3757] ({CH2CO}-[Dab]Y(Carboxymethyl)D[Phe(3-Me)][Phe(4-COOH)][Bip][Phe(4-COOH)][Orn][dL][Dab][Cha]VHC[Dab][AEEA][AEEA][Aun]-OH; thioether N-14) |
| 4.7 | Cc1cccc(C[C@@H]2NC(=O)[C@H](CC(=O)O)NC(=O)[C@H](Cc3ccc(OCC(=O)O)cc3)NC(=O)[C@H](CCN)NC(=O)CSC[C@@H](C(=O)N[C@@H](CCN)C(=O)NCCOCCOCC(=O)NCCOCCOCC(=O)NCCCCCCCCCCCCC(=O)O)NC(=O)[C@H](Cc3cnc[nH]3)NC(=O)[C@H](C(C)(C)O)NC(=O)[C@H](CC3CCCCC3)NC(=O)[C@H](CCN)NC(=O)[C@@H](CC(C)C)NC(=O)[C@H](CCCN)NC(=O)[C@H](Cc3ccc(OCC(=O)O)cc3)NC(=O)[C@H](Cc3ccc(-c4ccccc4)cc3)NC(=O)[C@H](Cc3ccc(OCC(=O)O)cc3)NC2=O)c1 [Compound 3760] ({CH2CO}-[Dab]Y(Carboxymethyl)D[Phe(3-Me)]Y(Carboxymethyl)[Bip]Y(Carboxymethyl)[Orn][dL][Dab][Cha][Val(3-OH)]HC[Dab][AEEA][AEEA]-{NH(CH2)12COOH}; thioether N-14) |
| 36.8 | Cc1cccc(C[C@@H]2NC(=O)[C@H](CC(=O)O)NC(=O)[C@H](Cc3ccc(OCC(=O)O)cc3)NC(=O)[C@H](CCN)NC(=O)CSC[C@@H](C(=O)N[C@@H](CCN)C(=O)NCCOCCOCC(=O)NCCOCCOCC(=O)NCCOCCOCC(=O)NCCCCCCCCCCCCCCC(=O)O)NC(=O)[C@H](Cc3c[nH]cn3)NC(=O)[C@H](C(C)(C)O)NC(=O)[C@H](CC3CCCCC3)NC(=O)[C@H](CCN)NC(=O)[C@@H](CC(C)C)NC(=O)[C@H](CCCN)NC(=O)[C@H](Cc3ccc(C(=O)O)cc3)NC(=O)[C@H](Cc3ccc(-c4ccccc4)cc3)NC(=O)[C@H](Cc3ccc(C(N)=O)cc3)NC2=O)c1 [Compound 3761] ({CH2CO}-[Dab]Y(Carboxymethyl)D[Phe(3-Me)][Phe(4-CONH2)][Bip][Phe(4-COOH)][Orn][dL][Dab][Cha][Val(3-OH)]HC[Dab][AEEA][AEEA][AEEA]-{NH(CH2)14COOH}; thioether N-14) |
